Test results published in BindingDB's records for doi:10.1016/j.bioorg.2009.09.001 (University of Ljubljana, 2009).

What was measured:
Assay in all cases: Enzymatic Assay
Conditions in all cases: pH 8; 37 °C
[1] = target: UDP-N-acetylmuramate--L-alanine ligase (Escherichia coli (strain K12), UniProt P17952)
Protocol: (§1) Compounds were tested for their inhibition of the addition of L-Ala, D-Glu, L-Lys or D-Ala-D-Ala to nucleotide precursors catalyzed by MurC from Escherichia coli, MurD from E. coli, MurE from Staphylococcus aureus, and MurF from E coli. The detection of the orthophosphate generated during the reaction was based on the colorimetric Malachite green method.

[2] = target: T1, UDP-N-acetylmuramoyl-L-alanyl-D-glutamate--L-lysine ligase (Staphylococcus aureus (strain NCTC 8325 / PS 47), UniProt Q2FZP6)
T1 sequence (Q2FZP6 whole entry): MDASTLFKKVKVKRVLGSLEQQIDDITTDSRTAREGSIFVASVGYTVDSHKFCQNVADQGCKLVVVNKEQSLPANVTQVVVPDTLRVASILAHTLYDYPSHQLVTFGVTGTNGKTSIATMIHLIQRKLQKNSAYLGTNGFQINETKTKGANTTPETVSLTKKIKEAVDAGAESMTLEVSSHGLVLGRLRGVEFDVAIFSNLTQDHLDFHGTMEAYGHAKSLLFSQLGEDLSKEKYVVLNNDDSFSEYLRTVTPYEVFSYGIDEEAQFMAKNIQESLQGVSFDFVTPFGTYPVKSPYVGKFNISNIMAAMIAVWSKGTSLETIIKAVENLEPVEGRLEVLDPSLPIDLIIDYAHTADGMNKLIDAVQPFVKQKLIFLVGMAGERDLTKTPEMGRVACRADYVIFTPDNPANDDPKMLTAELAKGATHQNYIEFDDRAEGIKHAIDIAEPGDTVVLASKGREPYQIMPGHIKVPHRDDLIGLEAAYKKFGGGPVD
Protocol: as §1

[3] = target: T2, UDP-N-acetylmuramoyl-tripeptide--D-alanyl-D-alanine ligase (Escherichia coli (strain K12), UniProt P11880)
T2 sequence (P11880 whole entry): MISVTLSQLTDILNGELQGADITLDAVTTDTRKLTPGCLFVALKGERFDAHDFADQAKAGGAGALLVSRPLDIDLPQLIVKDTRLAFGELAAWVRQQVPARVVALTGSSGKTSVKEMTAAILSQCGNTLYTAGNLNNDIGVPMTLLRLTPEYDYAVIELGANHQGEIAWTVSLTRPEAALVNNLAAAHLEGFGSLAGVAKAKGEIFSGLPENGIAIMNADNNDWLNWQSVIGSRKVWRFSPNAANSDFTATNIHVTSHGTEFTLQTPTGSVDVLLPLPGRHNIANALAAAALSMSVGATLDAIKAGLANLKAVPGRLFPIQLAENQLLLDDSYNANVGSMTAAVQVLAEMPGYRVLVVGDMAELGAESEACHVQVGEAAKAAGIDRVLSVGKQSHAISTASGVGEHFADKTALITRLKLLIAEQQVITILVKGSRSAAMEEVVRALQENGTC
Protocol: as §1

Chain of UDP-N-acetylmuramate--L-alanine ligase (P17952 whole entry): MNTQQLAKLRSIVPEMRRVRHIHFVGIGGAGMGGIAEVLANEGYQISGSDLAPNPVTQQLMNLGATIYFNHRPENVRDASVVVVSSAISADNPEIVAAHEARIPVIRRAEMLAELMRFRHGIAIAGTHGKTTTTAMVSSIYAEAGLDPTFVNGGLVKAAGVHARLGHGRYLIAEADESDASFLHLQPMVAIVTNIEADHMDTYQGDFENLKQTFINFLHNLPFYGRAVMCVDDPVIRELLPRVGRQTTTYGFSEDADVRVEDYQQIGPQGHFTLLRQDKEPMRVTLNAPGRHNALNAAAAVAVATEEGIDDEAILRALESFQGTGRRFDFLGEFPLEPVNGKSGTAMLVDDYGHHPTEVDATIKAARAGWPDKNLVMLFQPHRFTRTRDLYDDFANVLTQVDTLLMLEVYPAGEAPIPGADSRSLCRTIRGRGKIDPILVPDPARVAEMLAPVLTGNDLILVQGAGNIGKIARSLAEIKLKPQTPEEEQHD

SMILES	IC50 [1]	IC50 [2]	IC50 [3]
COc1ccc(S(=O)(=O)NCC(CN2CCOCC2)OP(=O)(O)O)cc1 (stereo not drawn)	490 µM	6 µM	530 µM
O=P(O)(O)OC(CNS(=O)(=O)c1ccc(F)cc1)CN1CCOCC1 (stereo not drawn) [HEA derivative, 7b]	790 µM	120 µM	270 µM
O=P(O)(O)OC(CNS(=O)(=O)c1cccc(C(F)(F)F)c1)CN1CCOCC1 (stereo not drawn) [HEA derivative, 7d]	530 µM	160 µM	150 µM
Cc1ccc(S(=O)(=O)NCC(CN2CCOCC2)OP(=O)(O)O)cc1 (stereo not drawn) [HEA derivative, 7e]	540 µM	120 µM	560 µM
CCc1ccc(S(=O)(=O)NCC(CN2CCOCC2)OP(=O)(O)O)cc1 (stereo not drawn) [HEA derivative, 7f]	760 µM	61 µM	360 µM
O=P(O)(O)OC(CNS(=O)(=O)c1ccc(C(F)(F)F)cc1)CN1CCOCC1 (stereo not drawn) [MurC/D/E/F inhibitor (compound 68)]	200 µM	57 µM	240 µM
